melting point [°C]	SMILES
178 to 180	CC(C)C(=O)c1cn(Cc2c(F)cccc2F)c2sc(-c3ccc(NC(=O)C(C)(C)O)cc3)c(CN(C)Cc3ccccc3)c2c1=O
215 to 218	CC1c2ccccc2Cn2cc3c(c21)C(=O)c1ccccc1C3=O (stereo not given)
48	O=CNCN1CCCCCC1=O
90 to 91	CC(C)(C)OC(=O)N[C@@H](COc1ccccc1N)C(=O)O
82 to 83	OCc1cc(Cl)c(Cl)c(Cl)n1
115 to 119	C=C(CC)C(=O)c1ccc(OC(C)C(=O)O)c(Cl)c1Cl (stereo not given)
122 to 123	CCOC(=O)c1c(OC)c2cc(Cl)ccc2c(=O)n1C
225	N#CC1=C(C2CCCC2)Nc2n[nH]cc2C1c1ccccc1Cl (stereo not given)
106 to 108	CC(C)Oc1ccc(NC(=O)C2(Cl)CC2)cc1C(F)(F)F
122 to 123	O=C(O)c1ccc(CCCC2SCC(=O)N2CCC2(O)CCCCC2)s1 (stereo not given)
118	CC(C)(C)OC(=O)N(CC=Cc1ccccc1)S(N)(=O)=O
169 to 171	COc1cc(CC2COC(c3ccc(O)c(OC)c3)C2CO)ccc1O (stereo not given)
176 to 178	OCc1cnc2c(F)cccc2c1O
112	Cc1ccc(S(=O)(=O)N2CC[C@@H](C)[C@@H]2c2ccc(F)cc2)cc1 (racemic)
185	COc1cc(Nc2nccc(-c3ccccn3)n2)cc(OC)c1OC
76	CCCCCCCCCC(=O)Nc1ccc(C=C(C#N)C(=O)OCC)cc1
235	COC(=O)C1=C(C)Nc2n[nH]cc2C1c1ccccc1Cl (stereo not given)
90 to 92	C=CCNc1nc(NCC(C)(C)C)c2scc(C)c2n1
135	Cc1cn2cccc(OCc3c(Cl)ccc(S(=O)(=O)N4CCC[C@H]4C(=O)O)c3Cl)c2n1
221 to 223	CN(C)CCCOc1ccc(-c2nn(CC(=O)O)c3ncccc23)cc1
74 to 80	CCC(=NO)c1ccc(OCCOC)cc1
245 to 246	O=C(c1ccc([N+](=O)[O-])cc1)N1CCc2cc(S(=O)(=O)n3cc(-c4ccccc4)[nH]c3=O)ccc21
172	Cc1ccc(N2C(=O)C(O)=C(C(=O)c3ccc(C(F)(F)F)nc3)C2c2ccc(OC(F)(F)F)cc2)nn1 (stereo not given)
> 250	COc1cc2ncc(C#N)c(Nc3cc(Cl)c(O)c(Cl)c3)c2cc1OC
128 to 133	CC(=O)C(Cc1ccccc1)(N=Nc1ccc(C(O)(C(F)(F)F)C(F)(F)F)cc1)C(N)=O (stereo not given)

melting point [°C]	SMILES
197 to 198	NS(=O)(=O)c1ccc(NC(=O)CNc2ccccc2)c(F)c1
133 to 136	COc1ccc2cc(N)ccc2c1
89 to 90	CC(=O)NCCCCc1ccc(C(=O)CC(C)C#N)cc1 (stereo not given)
175	CCN(C)c1nsc(NC(=O)NC)c1C#N
208 to 210	CCCNc1nc(=O)n(CC2CC2)c2nc(C(C)C)[nH]c12
148 to 149	COc1cccc(C(=O)N2c3ccccc3C(O)CC2C)c1 (stereo not given)
326 to 328	COc1ccc(-c2nc3cc4c(cc3[nH]2)NC(=O)C4C(C)C)cc1 (stereo not given)
73 to 76	COC(=O)C1C2C=CC(C2)C1NC(=O)OCc1ccccc1 (stereo not given)
90 to 91	CC1CCCC(C)N1CCCC(O)(c1ccccc1)c1ccccc1 (stereo not given)
172 to 174	Cc1nc2sc(S(=O)(=O)Cl)cc2c(=O)n1-c1ccccc1Cl
90 to 95	CCc1nc2c(C)cc(C)nc2n1Cc1ccc2oc(-c3ccccc3NS(=O)(=O)C(F)(F)F)c(Br)c2c1
135	CCOC(=O)c1ccnnc1NC(=O)Cc1c(F)cc(F)cc1F
130 to 133	O[C@H](CCc1cccnc1)COc1ccc(-c2nnco2)cc1
223	CC1(C)CCC(C)(C)c2cc(-c3cc(-c4ccc(C(=O)N5CCOCC5)cc4)ccc3-c3ccccc3)ccc21
171	CC(=O)Nc1ccc2c(c1)OCc1cc([N+](=O)[O-])ccc1C2=O
189 to 192	O=C(Oc1cc(Cl)ccc1Cl)c1cc2ccccc2oc1=O
88	CS(=O)CCNC(N)=O (stereo not given)
263 to 268	CC(O)c1cc2c(=O)n(NS(C)(=O)=O)c(=O)[nH]c2cc1C(F)(F)F (stereo not given)
> 300	O=C(O)c1ccc(C(=O)O)c(O)c1
164 to 166	CS(=O)(=O)N(C(=O)c1ccccc1)c1cc2occc(=O)c2cc1Oc1ccccc1
126 to 127	O=C(c1ccc(I)cc1)N1CCCCC1
98 to 100	OCC(O)Cc1ncc[nH]1 (stereo not given)
97 to 100	Cc1cc(SCCc2cccc3sc(-c4ccc(C(F)(F)F)cc4)nc23)ccc1OCC(=O)O
111	CCN(CC)C(=O)CNc1cc(N)ccc1OC
103 to 104	C=CC(C)(C)CC(=O)C(=O)Nc1ccc2c(c1)C(=O)OC2

melting point [°C]	SMILES
97 to 102	CC(CF)(CF)C(O)C(Oc1ccc(Cl)cc1)n1cncn1 (stereo not given)
136 to 139	CCCc1c(OCCCOc2ccc(-c3cocn3)c(OC)c2CCC)ccc2c1OC(C(=O)O)CC2 (stereo not given)
65 to 67	CCOC(=O)C(=CNc1ncccc1C)C(=O)OCC
42 to 44	CCOC(=O)c1cnoc1-c1ccc(C)cc1
129 to 131	OC(CCCN1CCN(c2ncc(F)cn2)CC1)c1ccc(F)c2ccccc12 (stereo not given)
41 to 43	CCc1ccc2c(-c3ccccc3)onc2c1
193 to 197	COc1ccc2c(c1)C(=O)N(c1ccc3c(ccn3C)c1)C2
126 to 127	CC(C)(C)CC(C)(C)Nc1nc(NC(C)(C)CC(C)(C)C)nc(N2CC3CCC(CC3)C2)n1
139	OCCN1CCC(Nc2nc3ccccc3n2Cc2ccc(F)cc2)CC1
70 to 71	Cc1sc(-c2ccccc2)nc1COc1ccc(CO)cn1
52 to 54	CCOC(=O)c1ccc2c(Br)cccc2c1
230 to 232	O=C(O)c1c[nH]c(=S)n1C1Cc2cc(F)cc(F)c2C1 (stereo not given)
111 to 112	COc1ccc(OC)c(C=CC(=O)N(C)O)c1
176	CCOC(=O)C1=C(N)NC(N)=C(C(=O)OCC)C1c1cccc(C#N)c1
49 to 51	COc1ccsc1C(=O)C=C(C)C
195 to 196	COc1cc(OC)cc(-c2cc(=O)c3ccc(OCC(O)CN4CCN(c5ccccc5)CC4)cc3o2)c1 (stereo not given)
82 to 82.5	CCON=C(CC)C1=C(O)CC(c2ccc(Oc3ncc(C(F)(F)F)cc3F)cc2)CC1=O (stereo not given)
279 to 283	Cc1ccc(-c2cc3cc(C(=O)O)ccc3o2)cc1
164	CCOc1cc2c(Cl)ccnc2nc1C
> 240	Cc1cc(S(C)(=O)=O)c(S(C)(=O)=O)cc1C(=O)N=C(N)N
88 to 90	CCOC(=O)C1CNc2cc([N+](=O)[O-])ccc2O1 (stereo not given)
58 to 60	CCN(CC)CCNC(=O)c1cc(F)c2cc(I)ccc2n1
170 to 172	CCOc1nc(NCc2ccco2)nc(Nc2ccc3[nH]c(-c4cccs4)nc3c2)n1

SMILES	melting point [°C]
CC(C)OCC(=O)C1CCC2C3CCC4CC(O)CCC4(C)C3C(=O)CC12C (stereo not given)	121 to 125
CC#Cc1[nH]c(=O)n2c1CN(C)Cc1cc(F)ccc1-2	219 to 220
